The values that follow are results of earlier work, collected in US8324220B2 (priority 2003, dated 2012).

SMILES strings stand for the structures. Where only a bound is given, the exact number is not on record here.

The IC50 is the concentration at which inhibition is half-maximal.

The subject of one series is neuropathic pain. The note with it: human, in vivo.
A further series deals with NaV1.8 (Homo sapiens, UniProt Q9Y5Y9).
Another series concerns the target NaV1.2 (Homo sapiens, UniProt Q99250). Particulars: read-out: TTX IC50.
The next series addresses NaV1.6 (Homo sapiens, UniProt Q9UQD0). Particulars: read-out: TTX IC50.
The next series concerns the target NaV1.1 (Homo sapiens, UniProt P35498). Particulars: read-out: TTX IC50.
The target in another series is NaV1.9 (Homo sapiens, UniProt Q9UI33).
NaV1.9, sequence (Q9UI33 whole entry, looked up): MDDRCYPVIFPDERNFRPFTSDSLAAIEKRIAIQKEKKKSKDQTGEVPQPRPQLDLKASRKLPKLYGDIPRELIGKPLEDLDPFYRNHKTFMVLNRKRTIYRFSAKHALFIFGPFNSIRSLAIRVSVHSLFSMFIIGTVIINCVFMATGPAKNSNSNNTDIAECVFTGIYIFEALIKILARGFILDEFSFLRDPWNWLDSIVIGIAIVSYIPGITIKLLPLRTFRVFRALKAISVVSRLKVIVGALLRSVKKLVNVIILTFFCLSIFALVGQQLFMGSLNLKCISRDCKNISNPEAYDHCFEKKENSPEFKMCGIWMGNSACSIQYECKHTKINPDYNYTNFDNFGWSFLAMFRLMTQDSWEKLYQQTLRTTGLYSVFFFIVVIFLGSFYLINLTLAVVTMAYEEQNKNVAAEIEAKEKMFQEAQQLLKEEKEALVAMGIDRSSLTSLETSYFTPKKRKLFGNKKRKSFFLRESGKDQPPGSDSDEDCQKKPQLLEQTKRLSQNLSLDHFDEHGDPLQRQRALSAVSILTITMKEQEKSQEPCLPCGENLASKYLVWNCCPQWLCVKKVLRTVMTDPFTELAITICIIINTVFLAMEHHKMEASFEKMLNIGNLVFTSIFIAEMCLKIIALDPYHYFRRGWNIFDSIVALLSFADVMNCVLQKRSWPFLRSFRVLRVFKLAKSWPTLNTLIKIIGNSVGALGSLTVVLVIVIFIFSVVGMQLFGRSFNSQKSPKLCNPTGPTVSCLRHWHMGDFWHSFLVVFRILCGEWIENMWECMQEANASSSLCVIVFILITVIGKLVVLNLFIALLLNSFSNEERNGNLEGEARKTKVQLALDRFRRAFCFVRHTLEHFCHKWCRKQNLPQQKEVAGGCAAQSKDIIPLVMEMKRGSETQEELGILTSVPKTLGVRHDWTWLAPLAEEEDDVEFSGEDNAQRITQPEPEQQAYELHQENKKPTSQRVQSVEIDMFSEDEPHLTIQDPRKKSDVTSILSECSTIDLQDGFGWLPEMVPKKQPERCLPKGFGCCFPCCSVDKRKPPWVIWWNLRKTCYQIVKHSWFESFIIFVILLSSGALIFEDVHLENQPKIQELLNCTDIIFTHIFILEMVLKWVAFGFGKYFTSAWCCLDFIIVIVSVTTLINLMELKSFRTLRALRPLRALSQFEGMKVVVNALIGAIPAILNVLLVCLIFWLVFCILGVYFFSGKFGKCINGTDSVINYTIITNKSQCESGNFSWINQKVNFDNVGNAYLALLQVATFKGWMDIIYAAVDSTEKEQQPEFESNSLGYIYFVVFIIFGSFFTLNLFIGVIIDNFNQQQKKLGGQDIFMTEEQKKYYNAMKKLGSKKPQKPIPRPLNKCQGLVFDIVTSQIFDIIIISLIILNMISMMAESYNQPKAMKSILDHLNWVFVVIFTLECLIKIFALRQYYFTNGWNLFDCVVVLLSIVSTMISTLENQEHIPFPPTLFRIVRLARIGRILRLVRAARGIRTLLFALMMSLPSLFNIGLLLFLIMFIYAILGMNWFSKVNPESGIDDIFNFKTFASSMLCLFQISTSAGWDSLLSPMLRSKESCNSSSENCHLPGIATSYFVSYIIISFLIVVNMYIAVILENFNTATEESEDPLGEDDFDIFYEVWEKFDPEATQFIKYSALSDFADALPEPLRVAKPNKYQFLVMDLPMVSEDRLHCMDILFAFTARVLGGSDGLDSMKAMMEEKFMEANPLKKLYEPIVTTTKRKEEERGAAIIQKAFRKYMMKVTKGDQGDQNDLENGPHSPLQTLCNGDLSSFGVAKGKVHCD
The next series deals with NaV1.3 (Homo sapiens, UniProt Q9NY46). Particulars: read-out: TTX IC50.
The target in the next series is NaV1.5 (Homo sapiens, UniProt Q14524).

NaV1.8, sequence (Q9Y5Y9 whole entry, looked up): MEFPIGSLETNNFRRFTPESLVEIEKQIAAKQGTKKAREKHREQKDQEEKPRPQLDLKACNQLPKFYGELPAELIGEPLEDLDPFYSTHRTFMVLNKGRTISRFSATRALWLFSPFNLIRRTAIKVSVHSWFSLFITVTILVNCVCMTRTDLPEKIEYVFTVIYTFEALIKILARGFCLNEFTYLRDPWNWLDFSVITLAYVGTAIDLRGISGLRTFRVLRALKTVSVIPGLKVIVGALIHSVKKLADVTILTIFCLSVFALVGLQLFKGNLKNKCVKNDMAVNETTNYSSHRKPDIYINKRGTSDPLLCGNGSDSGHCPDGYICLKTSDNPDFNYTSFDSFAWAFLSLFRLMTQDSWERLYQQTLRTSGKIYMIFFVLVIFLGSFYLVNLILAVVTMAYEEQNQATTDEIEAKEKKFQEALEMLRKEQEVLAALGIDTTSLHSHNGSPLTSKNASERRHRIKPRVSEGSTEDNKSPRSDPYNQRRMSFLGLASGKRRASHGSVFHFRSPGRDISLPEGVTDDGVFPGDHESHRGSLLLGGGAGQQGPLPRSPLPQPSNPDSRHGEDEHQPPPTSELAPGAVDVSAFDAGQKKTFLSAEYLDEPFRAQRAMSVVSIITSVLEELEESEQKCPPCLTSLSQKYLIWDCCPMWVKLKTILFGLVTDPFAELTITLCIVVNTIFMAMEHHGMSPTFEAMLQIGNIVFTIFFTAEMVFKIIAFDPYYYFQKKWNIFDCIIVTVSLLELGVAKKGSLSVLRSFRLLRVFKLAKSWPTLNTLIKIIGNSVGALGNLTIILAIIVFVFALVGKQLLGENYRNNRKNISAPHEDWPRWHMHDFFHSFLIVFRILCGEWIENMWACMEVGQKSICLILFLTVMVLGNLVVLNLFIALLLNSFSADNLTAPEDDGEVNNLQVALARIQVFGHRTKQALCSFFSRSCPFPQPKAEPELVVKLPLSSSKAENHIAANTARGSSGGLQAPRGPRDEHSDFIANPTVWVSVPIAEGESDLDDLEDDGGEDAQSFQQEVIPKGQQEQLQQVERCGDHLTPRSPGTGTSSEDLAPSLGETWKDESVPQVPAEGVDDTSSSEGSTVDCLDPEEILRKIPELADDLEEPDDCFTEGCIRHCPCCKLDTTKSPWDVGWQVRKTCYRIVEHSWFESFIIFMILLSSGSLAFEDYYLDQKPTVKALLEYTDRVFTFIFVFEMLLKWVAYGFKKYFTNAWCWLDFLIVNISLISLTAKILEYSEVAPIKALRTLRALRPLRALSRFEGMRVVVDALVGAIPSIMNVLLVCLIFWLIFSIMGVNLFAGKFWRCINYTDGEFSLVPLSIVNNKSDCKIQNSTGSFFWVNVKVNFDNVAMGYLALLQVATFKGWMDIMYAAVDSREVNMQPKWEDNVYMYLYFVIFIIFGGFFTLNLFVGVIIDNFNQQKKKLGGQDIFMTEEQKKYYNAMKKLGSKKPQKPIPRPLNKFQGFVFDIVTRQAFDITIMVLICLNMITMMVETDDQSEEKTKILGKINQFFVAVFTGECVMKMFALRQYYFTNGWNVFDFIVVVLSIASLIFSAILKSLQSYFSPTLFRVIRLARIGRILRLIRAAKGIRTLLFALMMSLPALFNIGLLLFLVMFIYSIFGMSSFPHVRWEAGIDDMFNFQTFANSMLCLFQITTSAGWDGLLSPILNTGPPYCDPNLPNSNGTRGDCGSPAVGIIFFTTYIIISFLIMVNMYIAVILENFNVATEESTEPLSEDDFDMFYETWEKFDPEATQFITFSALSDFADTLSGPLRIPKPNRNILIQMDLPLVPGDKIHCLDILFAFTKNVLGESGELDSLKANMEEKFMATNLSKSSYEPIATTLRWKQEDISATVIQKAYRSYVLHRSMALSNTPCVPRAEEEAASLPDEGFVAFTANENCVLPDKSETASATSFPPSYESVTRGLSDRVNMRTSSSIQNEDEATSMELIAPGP

For the compound `NCC1(CC(=O)O)CCCCC1` [Gabapentin], the “share of patients in which the drug works” value in the series on neuropathic pain is on record as 60%.
Turning to `NC1=N[C@H](O)[C@H]2[C@H]3O[C@]4(O)O[C@@H]([C@@H](O)[C@@]2(N1)[C@@H]4O)[C@]3(O)CO` [TTX, tetrodotoxin], the “block by TTX” value at NaV1.8, on NaV1.9 and on NaV1.5 was “resistant to block” each time. Besides, the IC50 on NaV1.8 (read-out: TTX IC50) was > 50000 nM; at NaV1.2 it was 10 nM; on NaV1.6 it was 6 nM; at NaV1.1 it was 10 nM; at NaV1.9 (read-out: TTX IC50) it was 1000 nM; at NaV1.3 it was 15 nM.
